From patent US20080044348A1 (priority 2006, published 2008)

The compounds below were run on HIF1α signaling.
Type: cell-based

Row | Compound | time to induce hypoxia in the entire spheroid | effect on CoCl2-induced HIF1α signaling
1 | [Cl][Co][Cl] [Cobalt chloride] | 6 to 8 h | 
2 | CCCCCCCCCCC[C@@H](C[C@@H]1OC(=O)[C@H]1CCCCCC)OC(=O)[C@H](CC(C)C)NC=O [Orlistat] |  | suppressed CoCl2-induced HIF1α signaling
3 | COc1cc2c(cc1OC)[C@@H]1C(=O)c3ccc4c(c3O[C@@H]1CO2)C=CC(C)(C)O4 [Deguelin] |  | no significant effect on HIF1α signaling
4 | C[S+]([O-])c1ccc(-c2nc(-c3ccncc3)c(-c3ccc(F)cc3)[nH]2)cc1 (centres unmarked) [SB 203580] |  | no significant effect on HIF1α signaling
5 | COc1cc2ncnc(Nc3ccc(F)c(Cl)c3)c2cc1OCCCN1CCOCC1 [Iressa] |  | suppressed CoCl2-induced HIF1α signaling
6 | Nc1ccn([C@@H]2O[C@H](CO)[C@@H](O)C2(F)F)c(=O)n1 [Gemzar] |  | suppressed CoCl2-induced HIF1α signaling
7 | PD 168393 |  | no significant effect on HIF1α signaling
8 | COc1ccc(C[C@H]2NC[C@H](O)[C@H]2OC(C)=O)cc1 [Anisomycin] |  | suppressed CoCl2-induced HIF1α signaling
9 | Cc1ccc(NC(=O)c2ccc(CN3CCN(C)CC3)cc2)cc1Nc1nccc(-c2cccnc2)n1 [Gleevec] |  | no significant effect on HIF1α signaling
10 | COc1cc(C[C@H]2C(=O)OC[C@@H]2Cc2ccc(OC)c(OC)c2)ccc1O [Arctigenin] |  | suppressed CoCl2-induced HIF1α signaling
11 | C#Cc1cccc(Nc2ncnc3cc(OCCOC)c(OCCOC)cc23)c1 [Tarceva] |  | suppressed CoCl2-induced HIF1α signaling
